Results: publication PMC8212695, “Discovery of a Highly Conserved Peptide in the Iron Transporter Melanotransferrin that Traverses an Intact Blood Brain Barrier and Localizes in Neural Cells” (Frontiers in Neuroscience, 2021)
Like-named read-outs stand apart in the source and are kept apart here. Where no end group is shown, it is not given here.

How the values were obtained:
[1] = test system: in vitro BBB model: primary bovine brain capillary endothelial cells supported by primary rat glial cells
[2] = test system: in vitro BBB model: primary bovine brain capillary endothelial cells supported by primary rat glial cells; test: In vitro BBB model transcytosis of trypsin-digested sMTf, peptides identified by mass spectrometry; details: for Ablum 120:Area: MS peak area in abluminal compartment at 120 min; for Ablum 120:Area / Lum 120:Area: trypsin-digested sMTf 0.25 mg/mL luminal, Ringer-HEPES, 37°C, 2 h, LC-MS, one peptide may have several lines; for Lum 120:Area: MS peak area in luminal compartment at 120 min; for presence of MTf fragments on the abluminal side: after 2 h, SDS-PAGE and/or mass spectrometry
[3] = test system: in vitro BBB model: primary bovine brain capillary endothelial cells supported by primary rat glial cells; remark: listed apart in the source
[4] = test system: neurons, astrocytes, microglia, lysosomes, endosomes in the brain; test: Cellular and subcellular localization of MTfp in mouse brain, 3D confocal microscopy; assay type: in vivo; details: mice injected IV with Cy5-MTfp
Description: Three sets of 3D fluorescence microscopy experiments were performed. The first set measured the BBB penetration of Cy5 tagged MTfp using DeltaVision Elite integrated with Huygens Deconvolution Software (GE, United States). As an extension of this, a set of sections were prepared to assess the cellular localization of the Cy-5 tagged MTfp in the CNS. The second set of experiments addressed the localization of Cy-5 tagged MTfp in various cell types and subcellular objects using the Leica SP8 X system (Leica, Germany).
The brains were removed and fixed with 4% paraformaldehyde overnight and then transferred into PBS+0.01% sodium azide and stored at 4°C. The brains were embedded in 4% agarose, fixed onto the microtome stage and sectioned (20 μm) at 4°C. The sections were stained with DAPI and then mounted on microscopic slides. Glass coverslips were mounted on the sections using Prolong Gold antifade reagent. In another experiment, to assess the localization of the peptide in the CNS, brains from mice injected with either PBS or Cy5-MTfp followed by FITC- tomato lectin. The brains were collected and processed as stated above. These were then incubated with antibodies targeted against neurons (NeuN; ab177487), microglia (TMEM; ab209064), astrocytes (GFAP; ab7260), lysosomes (LAMP-1; sc-19992-AF546) and endosomes (EEA-1; sc-137130), secondary antibody staining was done for unconjugated primary antibodies with Alexa fluor 680 goat anti-mouse IgG (cat# A21058), Alexa fluor 680 goat anti-rabbit IgG (Cat #A21076) and then counter-stained with DAPI, cover slipped, imaged and quantitatively analyzed to determine the extent of localization of various cell types and subcellular objects with MTfp.
The microscopy experiments, which quantitatively assessed the cellular location of MTfp within the brain, were performed using Leica SP8 X system (Leica, Germany). 3D confocal images were acquired with a Leica AOBS SP8 laser scanning confocal microscope (Leica, Heidelberg, Germany) using a high-resolution Leica 63X/1.4 or 40X/1.3 Plan-Apochromat oil immersion objective lens. Excitations were performed using either diode or tunable white light laser sources. All images and spectral data (except DAPI) were generated using the highly sensitive HyD detectors (with gated option) in de-scanned mode. The backscattered emission signals from the sample were delivered through the tunable filter (AOBS), the detection pinhole, spectral dispersion prism, and finally to the PMT/HyD detectors. For 3D image data set acquisition, the excitation beam was first focused at the maximum signal intensity focal position within the brain tissue sample and the appropriate HyD gain levels were then selected to obtain the pixel intensities within range of 0–255 (8-bit images) using a color gradient function. The beginning and end of the 3D stack were set based on the signal level degradation. Series of 2D images for a selected 3D stack volume were then acquired with 1,024 × 1,024 pixels. […]
For each tissue volume reported here, z-section images were compiled and finally the 3D image restoration was performed using VOLOCITY software (Perkin Elmar, United Kingdom). The volume estimation was performed on the 3D image data sets recorded from four or more cortical area of brain tissue samples. Algorithms were developed to automate the quantification of the test materials and blood capillaries, and to accurately quantify test materials localized in blood capillaries vs. brain parenchyma. […]

[5] = stable isotopic LC-MS; ref Singh et al., 2020; cited from earlier work
Source text: In the context of the present study, the variability in conformation, glycosylation, anchoring and metal binding, presents potential complications to the use of sMTf as a robust, reproducible, clinically useful drug delivery vehicle. Therefore, to improve upon the utility of sMTf as a drug-delivery vector, we fragmented the protein in order to identify the minimally active region that retains the capability of carrying molecular cargo across the BBB. We report the identification of a 12 amino acid peptide (MTfp; […]), derived from melanotransferrin protein, that retains the ability cr ...

[6] = In vivo BBB penetration of Cy5-tagged peptides, 3D deconvolution fluorescence microscopy; details: mice, IV, Cy5 conjugates
[7] = mouse, in vivo, iv

| Substance | Abluminal vs. luminal [1] | Abluminal vs. total [1] | Ablum 120:Area [2] | Lum 120:Area [2] | presence of MTf fragments on the abluminal side [2] | Ablum 120:Area [3] | Lum 120:Area [3] | further results |
| --- | --- | --- | --- | --- | --- | --- | --- | --- |
| ADTDGGLIFR | 2.16% | 1.60% | 1.59E+10 | 1.11E+10 | identified in the abluminal medium |  |  |  |
| ADTDGGLIFRLLNEGQR |  |  |  |  |  | 0.00E+00 | 3.69E+07 |  |
| ADVTEWR [ADVTEWR] | 1.32% | 0.82% | 1.05E+10 | 9.31E+08 | identified in the abluminal medium |  |  |  |
| AVSDYFGGSCVPGAGETSYSESLCR |  |  |  |  |  | 5.49E+08 | 5.51E+09 |  |
| DSSHAFTLDELR [MTfp] | 2.41% | 1.90% | 5.87E+09 | 1.03E+10 | identified in the abluminal medium |  |  | MTfp found in the early endosomes ([4]; EEA-1 marker): approximately 20%; MTfp found in the lysosomes ([4]; LAMP-1 marker): 40%; astrocytes expressing GFAP co-labeled with MTfp ([4]; fluorescence volume fraction): 70%; microglia expressing TMEM co-labeled with MTfp ([4]; fluorescence volume fraction): 80%; neurons expressing NeuN co-labeled with MTfp ([4]; fluorescence volume fraction): 90%; initial rate of entry into the brain [5]: 2.1 nM/min; BBB penetration efficiency compared with RVGp [6]: statistically similar |
| DSSHAFTLDELRGK |  |  |  |  |  | 1.99E+07 | 0.00E+00 |  |
| DSSHAFTLDELRYC [MTfp-Cy5] |  |  |  |  |  |  |  | VT ABVP (Volume of Parenchymal Test Article normalized to Parenchymal Volume), Mean [7]: 1.0 8E-03; fractional fluorescence in the brain parenchyma compared to mice injected with PBS or revMTfp-Cy5 [7]: Approximately two |
| EHGLKPVVGEVYDQEVGTSYYAVAVVRR |  |  |  |  |  | 1.70E+07 | 0.00E+00 |  |
| GDSSGEGVCDKSPLER |  |  |  |  |  | 1.93E+09 | 5.08E+08 |  |
| IQAEQVDAVTLSGEDIYTAGK |  |  |  |  |  | 0.00E+00 | 3.48E+06 |  |
| LCRGDSSGEGVCDK |  |  |  |  |  | 2.64E+05 | 2.17E+05 |  |
| NYPSSLCALCVGDEQGR |  |  |  |  |  | 7.34E+07 | 6.15E+08 |  |
| RLEDLTFAHSSDYC [revMTfp-Cy5, reference compound] |  |  |  |  |  |  |  | VT ABVP (Volume of Parenchymal Test Article normalized to Parenchymal Volume), Mean [7]: 6.6 7E-04 |
| TVGWNVPVGYLVESGR |  |  |  |  |  | 0.00E+00 | 9.38E+07 |  |
| VPAHAVVVR | 2.49% | 1.52% | 1.24E+08 | 3.48E+07 | identified in the abluminal medium |  |  |  |
| YYDYSGAFR | 0.13% | 0.05% | 6.41E+09 | 1.00E+09 | identified in the abluminal medium |  |  |  |
